Test results taken from ChEMBL document CHEMBL5380875, “Discovery of a Potent and Oral Available Complex I OXPHOS Inhibitor That Abrogates Tumor Growth and Circumvents MEKi Resistance” (J Med Chem, 2023).
Activity calls are given as the source filed them. The rule behind the calls is not given here.

Experiments:
[1] = Toxicity in mouse xenografted with human NCI-H460 cells with high-OXPHOS assessed as reduction in body weight at 30 mg/kg, po bid administered for 18 days in presence of trametinib; type: organism-based; conditions: in vivo, 432 h, time 18 day
NCI-H460 [2] = experiment: Inhibition of mitochondrial complex I NADH-ubiquinone oxidoreductase in human NCI-H460 cells at 1 uM incubated for 12 hrs by seahorse XF96 metabolic flux analyzer relative to control; type: cell-based
NCI-H358 = experiment: Inhibition of mitochondrial respiration in human NCI-H358 cells with low-OXPHOS assessed as reduction in oxygen consumption rate at 50 to 200 nM incubated for 12 hrs by seahorse XF96 flux analyzer; type: functional, cell-based; conditions: dose 50-200 nM
NCI-H441 [3] = experiment: Inhibition of mitochondrial respiration in human NCI-H441 cells with high-OXPHOS assessed as reduction in spare oxygen consumption rate capacity incubated for 12 hrs by seahorse XF96 flux analyzer; type: functional, cell-based; conditions: dose 50-200 nM
[4] = Cytotoxicity against human MRC5 cells assessed as reduction in cell viability incubated for 5 days by CellTiter 96 cell proliferation assay; type: toxicity, cell-based
A549 [5] = experiment: Induction of apoptosis in human Trametinib-resistant A549 cells with high-OXPHOS harboring KRAS G12S mutant assessed as late apoptotic cells at 20 nM incubated for 72 hrs by Annexin V-FITC/propidium iodide staining based flow cytometry analysis (reference value: 4.27%); type: functional
[6] = AUC (0 to infinity) in ICR mouse at 10 mg/kg, po measured for 24 hrs by LC-MS/MS analysis; type: ADME, organism-based; design: dose 10 mg/kg, time 24 hrs, route po; conditions: in vivo
[7] = MRT (0 to 24 hrs) in ICR mouse at 1 mg/kg, iv measured for 24 hrs by LC-MS/MS analysis; type: ADME, organism-based; conditions: in vivo
A549 [8] = experiment: Inhibition of mitochondrial respiration in human Trametinib-resistant A549 cell assessed as reduction in basal oxygen consumption rate at 50 to 200 nM incubated for 12 hrs by seahorse XF96 flux analyzer; type: functional, cell-based; conditions: dose 50-200 nM
NCI-H441 [9] = experiment: Induction of apoptosis in human NCI-H441 cells with high-OXPHOS assessed as early apoptotic cells at 30 nM incubated for 48 hrs by Annexin V-FITC/propidium iodide staining based flow cytometry analysis (reference value: 1.67%); type: functional
[10] = Toxicity in mouse xenografted with human NCI-H460 cells with high-OXPHOS assessed as reduction in serum BUN level at 30 mg/kg, po bid administered for 18 days; type: organism-based; conditions: in vivo, 432 h, time 18 day
NCI-H460 [11] = experiment: Induction of apoptosis in human NCI-H460 cells with high-OXPHOS harboring KRAS Q61H mutant assessed as late apoptotic cells at 20 nM incubated for 72 hrs in presence of trametinib by Annexin V-FITC/propidium iodide staining based flow cytometry analysis (reference value: 5.68%); type: functional
NCI-H460 [12] = experiment: Antiproliferative activity against human NCI-H460 cells with high-OXPHOS assessed as reduction in cell viability incubated for 5 days by CellTiter 96 cell proliferation assay; type: functional, cell-based; conditions: NCI-H460, 120 h
NCI-H460 [13] = experiment: Potentiation of trametinib-induced antitumor activity against human NCI-H460 cells with high-OXPHOS xenografted in mouse assessed as reduction in tumor volume at 30 mg/kg, po bid administered for 18 days and measured every 3 days by electronic caliper analysis; type: functional, organism-based; conditions: time 18.0 day

Question: With `Cc1c(C(=O)N2CCN(Cc3ccc(OCC(F)(F)F)cc3)CC2)nnn1Cc1ccc(C(=O)Nc2ccc(C(F)(F)F)cc2)nc1` as the compound, how does the Activity [1] read?
Answer: Non-Toxic

Question: And the inhibition (NCI-H460 [2])?
Answer: 77.6%

Question: And the inhibition (NCI-H358)?
Answer: inactive

Question: And the inhibition (NCI-H441 [3])?
Answer: Dose-Dependent Effect

Question: What about the IC50 at 5 days [4] of the same compound?
Answer: > 10000 nM

Question: What about the Activity (A549 [5]) of the same compound?
Answer: 7.45%

Question: What about the AUC(0-inf) [6] of the same compound?
Answer: 2300 ng·h/mL

Question: And the MRT last at 24 h [7]?
Answer: 1.5 h

Question: And the inhibition (A549 [8])?
Answer: Active

Question: What about the Activity (NCI-H441 [9]) of the same compound?
Answer: 7.88%

Question: And the Activity [10]?
Answer: Non-Toxic

Question: What about the Activity (NCI-H460 [11]) of the same compound?
Answer: 34.1%

Question: What about the IC50 (NCI-H460 [12]) of the same compound?
Answer: 5 nM

Question: What about the Activity (NCI-H460 [13]) of the same compound?
Answer: Active
